Measured values taken from patent US20070190628A1, “Yeast food composition for fuel ethanol production” (priority 2006, published 2007).

Assays:
[1] = system: active dry yeast “z”; test: EVOP optimization of phosphorus and sulfur concentrations for fermentation rate in corn mash; format: cell-based, Saccharomyces cerevisiae; settings: combined with 16 mM urea, 0.049 g/L MgSO4.7H2O and 0.273 mg/L ZnSO4.7H2O
Experimental: The Evolution Operation Method (EVOP) described by Box et al, (1969, Evolutionary Operation: A Statistical Method for Process Improvement, John Wiley & Sons, NY, N.Y.) was used to optimize the concentrations of phosphorus and sulfur combined with urea, magnesium and zinc for increasing fermentation rates in corn mash.
Multiple sterile 2-L Celstir® fermentors were each filled with 1 L of corn mash supplemented with 16 mM urea, 0.049 g/L MgSO4.7H2O, and 0.273 mg/L ZnSO4.7H2O. The active dry yeast “z” was used as the inoculum in this study. The EVOP testing was conducted by using the “low” concentration values of phosphorus and sulfur (0.8 g/L (NH4)2HPO4 and 0.16 g/L (NH4)2SO4) from Table 1 as the center points for assessing 4 additional phosphorus and sulphur concentrations around these points for their effects on fermentation rates. If the response of a particular point around the center point was significant, then this particular point became the new center point and 4 new concentration values would be examined as described by Box et al (1969). […] Fermentation rates were determined by repeated sampling and sample processing at specific time intervals as described in Example 1.

[2] = system: active dry yeast “z”; test: Individual nutritive elements added to normal gravity corn mash: fermentation rate and viable cell numbers; format: cell-based, Saccharomyces cerevisiae
Experimental: Normal gravity corn mash was prepared using ground #2 yellow dent corn obtained from Commercial Alcohols Inc. (275 Bloomfield Road, Chatham, Ontario, Canada N7M 5J5). […] One part by weight of ground corn was dispersed into three parts of 50° C., sterile dH2O containing 1 mM CaCl2.2H2O. To minimize the development of excessive viscosity during gelatinization, 1.25 mL of high temperature (HT-2X) α-amylase such as was supplied by Alltech Inc. in Nicholasville, Ky., USA (HT-2X α-amylase is no longer available from Alltech), was added per litre of mash as the ground corn was dispersed. It should be noted that if Ca-independent alpha amylases are used such as Termamyl® SC supplied by Novozymes North America in Franklinton, N.C., USA, then the 1 mM CaCl2.2H2O is not required. Following the addition of the ground corn and a five-minute mixing period to produce a homogenous mixture, the temperature was increased until the mash reached 94° C. where it was held at this temperature for 60 min with continued stirring. The temperature of the gelatinized starch was then reduced to 80° C. and liquefied by a second dose of HT-2X αx-amylase (1.25 mL/L) with continued stirring for 30 min. Sterile Celstir® (Wheaton Scientific, Millville, N.J.) fermentor vessels were filled with 1 L aliquots of this mash. To each fermentor vessel, filter-sterilized (25 mm, 0.2 μm Acrodisc® syringe filter, Pall Corporation, Ann Arbor, Mich.) urea (Fisher Scientific, Co., NJ), was added to achieve a final concentration of 8 mM. Cold-sterilization of the mash was assured by the addition of 100 μL of diethyl pyrocarbonate (DEPC, Sigma Chemical Co.) per litre of mash mixing the mash mechanically (IKA-Labortechnik, Staufen, Germany) for 5-10 min followed by cooling the fermentor vessels at 4° C. cold room for ˜72 hrs. The fermentor vessels were then removed from the cold room, connected to 30° C. water bath circulators and mixed. Glucoamylase in the form of Allcholase II 400 supplied by Alltech Inc. was then added (1.5 mL/L mash) 30 min prior to yeast inoculation to initiate saccharification of the dextrins formed during gelatinization and liquefaction (it should be noted that Allcholase II 400 is no longer available and any glucoamylase may be used). The mash thus prepared contained 19-20 g of dissolved solids/100 mL of mash as determined by a digital density meter analyzer (model DMA-45, Anton Paar KG, Graz, Austria) maintained at 20° C.
Eleven grams of a commercially available active dry yeast, designated as “z”, were rehydrated by dispersal in 99 mL of preheated 38° C., 0.1% (w/v) sterile water and incubation for 20 min with periodic shaking in a 38° C. water bath. Fermentor vessels containing normal density corn mash were prepared as described above and inoculated with sufficient active yeast to provide an initial viable cell count of 1×10^7 cells per mL mash. The optimal fermentation temperature for the active dry yeast “z” was determined by conducting fermentations at 30°, 34°, 36°, 38°, and 40° C.
The effects of individual elements on yeast cell biomass production and fermentation in a fermentation feedstock were assessed by separately supplementing of corn mash with nitrogen, phosphorus, magnesium, sulphur and zinc. Nitrogen effects were assessed in corn mashes by the additions of urea to provide final concentrations in the mash of […]. Phosphorus effects were assessed in corn mashes amended with 16 mM urea, by the additions of (NH4)2HPO4 (BDH Chemicals Inc, Toronto, Ont., MW: 132.06) to provide final concentrations of 0, 0.1, 0.2, 0.4, 0.6, and 0.8 g of (NH4)2HPO4/L of mash. Magnesium effects were assessed in corn mashes amended with 16 mM urea, by the additions of MgSO4.7H2O (BDH Chemicals Inc., MW. 246.48) to provide final concentrations of 0, 0.025, 0.049, 0.074, 0.099, 0.148, 0.197 g of MgSO4.7H2O/L of mash. […]

[3] = (NH4)2HPO4 above 0.4 g/L, mash with 16 mM urea
[4] = ZnSO4.7H2O 0.287 mg/L to 2.30 mg/L (1 to 8 μM), mash with 16 mM urea

N.N.O=P(O)(O)O [(NH4)2HPO4]
optimal concentration for supplementing corn mash [1]: 1.6 g/L
effect on rates of dissolved solids utilization ([2]; 0.1 g/L to 0.4 g/L (NH4)2HPO4, mash with 16 mM urea): significantly increased
effect on cell yields [2, 3]: decreased cell yields
effect on fermentation rates [2, 3]: decreased fermentation rates

N.N.O=S(=O)(O)O [(NH4)2SO4]
optimal concentration for supplementing corn mash [1]: 0.32 g/L
effect on the rate of fermentation ([2]; (NH4)2SO4 above 0.04 g/L, mash with 16 mM urea): did not further benefit
yeast cell yields ([2]; (NH4)2SO4 above 0.04 g/L, mash with 16 mM urea, increased from 3.3×10^8/mL): 4e+08 mL⁻¹

O.O.O.O.O.O.O.O=S(=O)([O-])[O-].[Zn+2] [ZnSO4.7H2O]
effect on fermentation rates [2, 4]: negative effects
effect on numbers of yeast cells produced [2, 4]: negative effects

O.O.O.O.O.O.O.O=S(=O)([O-])[O-].[Mg+2] [MgSO4.7H2O]
effect on fermentation rate ([2]; MgSO4.7H2O exceeding 0.074 g/L (0.3 mM Mg2+), mash with 16 mM urea): decreased fermentation rate
